We go through nine compounds from patent publication US10059689B2, “Substituted heteroaryl compounds and methods of use” (Sunshine Lake Pharma Co., Ltd., priority 2014, dated 2018).

Where only a bound is given, the exact number is not on record here.

Series [1] is described as follows: Compound stability in rat liver microsomes. The note with it: for half-life: pH 7.4, 37° C., NADPH, read-out: Rat T1/2; for CLint scaled: pH 7.4, in vivo CLint extrapolated. The class given is in vitro ADME. The protocol: (§1) Human or rat liver microsomes incubations were conducted in duplicate in polypropylene tubes. The typical incubation mixtures consisted of human or rat liver microsomes (0.5 mg protein/mL), compounds of interest (5 μM) and NADPH (1.0 mM) in a total volume of 200 μL potassium phosphate buffer (PBS, 100 mM, pH 7.4). Compounds were dissolved in DMSO and diluted with PBS such that the final concentration of DMSO was 0.05%. The enzymatic reactions were commenced with the addition of protein after a 3-min preincubation and incubated in a water bath open to the air at 37° C. Reactions were terminated at various time points (0, 5, 10, 15, 30, 60 min) by adding equal volume of ice-cold acetonitrile. The samples were stored at −80° C. until LC/MS/MS assays.
(§2) The concentrations of compounds in the incubation mixtures of human or rat liver microsomes were determined by a LC/MS/MS method. The ranges of the linearity in the concentration range were determined for each tested compounds.
(§3) A parallel incubation was performed using denatured microsomes as the negative control, and reactions were terminated at various time points (0, 15, 60 min) after incubation at 37° C.
(§4) Verapamil (1 μM) was selected as the positive control, and reactions were terminated at various time points (0, 5, 10, 15, 30, 60 min) after incubation at 37° C. Both positive and negative control samples were included in each assay to ensure the integrity of the microsomal incubation system.
(§5) In addition, the stability date of compound in human and rat liver microsomes was also obtained through the following method. Human or rat liver microsomes incubations were conducted in duplicate in polypropylene tubes. The typical incubation mixtures consisted of human or rat liver microsomes (0.5 mg protein/mL), compounds of interest (1.5 μM) and EDTA (1.0 mM) in a total volume of 30 μL potassium phosphate buffer (PBS, 100 mM, pH 7.4). Compounds were dissolved in DMSO and diluted with PBS such that the final concentration of DMSO was 0.2%. The enzymatic reactions were commenced with the addition of 15 μL NADPH (final concentration: 2 mM) after a 10-min preincubation and incubated in a water bath open to the air at 37° C. Reactions were terminated at various time points (0, 15, 30, 60 min) by adding 135 μL acetonitrile (contain IS). The samples were centrifuged at 4000 rpm for 10 min to remove protein, the supernatant was stored at −80° C. until LC/MS/MS assays. Ketanserin (1 μM) was selected as the positive control, and reactions were terminated at various time points (0, 15, 30, 60 min) after incubation at 37° C. Both positive and negative control samples were included in each assay to ensure the integrity of the microsomal incubation system.
(§6) The concentrations of compounds in human or rat liver microsome incubations were plotted as a percentage of the relevant zero time point control for each reaction. The in vivo CLint were extrapolated (ref.: Naritomi, Y.; Terashita, S.; Kimura, S.; Suzuki, A.; Kagayama, A.; and Sugiyama, Y.; Prediction of human hepatic clearance from in vivo animal experiments and in vitro metabolic studies with liver microsomes from animals and humans. Drug Metab. Dispos., 2001, 29: 1316-1324).

For another series, the target named is T1, JAK2 (h) (Homo sapiens, UniProt O60674).
T1 construct: purchased Millipore UK Ltd (contract assay service)
Kind of series: JAK2 (h) kinase assay. Format: biochemical. The protocol: (§7) The above assay procedure can be used to determine the IC50 for inhibition and/or the inhibition constant, Ki. The IC50 is defined as the concentration of compound required to reduce the enzyme activity by 50% under the condition of the assay. The IC50 value is estimated by preparing a 10 point curve using a ½ log dilution series (for example, a typical curve may be prepared using the following compound concentrations: 3 μM, 1 μM, 0.3 μM, 0.1 μM, 0.03 μM, 0.01 μM, 0.003 μM, 0.001 μM, 0.0003 μM and 0 μM).
JAK2 (h) is incubated with 8 mM MOPS pH 7.0, 0.2 mM EDTA, 100 μM […], 10 mM MgAcetate and [γ-^33P-ATP] (specific activity approx. 500 cpm/pmol, concentration as required). The reaction is initiated by the addition of the MgATP mix. After incubation for 40 minutes at room temperature, the reaction is stopped by the addition of 3% phosphoric acid solution. 10 μL of the reaction is then spotted onto a P30 filtermat and washed three times for 5 minutes in 75 mM phosphoric acid and once in methanol prior to drying and scintillation counting.
(§8) The kinase assays described herein were performed at Millipore UK Ltd, Dundee Technology Park, Dundee DD2 1SW, UK.

The nature of series [2]: Pharmacokinetics after intravenous and oral administration in rats. Format: in vivo. The settings on record: for clearance (CL) / AUC(0-t) / half-life / Vd: iv dosing, 1 mg/kg; for F: oral bioavailability; for AUC(0-t) / half-life / Vd: rat, plasma; for Vd: read-out: Vss. The procedure: The LC/MS/MS system used in the analysis consists of an Agilent 1200 Series vacuum degasser, binary pump, well-plate autosampler, thermostatted column compartment, the Agilent G6430 Triple Quadrupole Mass Spectrometer with an electrosprayionization (ESI) source. Quantitative analysis was carried out using MRM mode. The parameters for MRM transitions are in the Table A.
An Agilent XDB-C18, 2.1×30 mm, 3.5 μM column was used for the analysis. 5 μL of the samples were injected. Analysis condition: The mobile phase was 0.1% formic acid in water (A) and 0.1% formic acid in methanol (B). The flow rate was 0.4 mL/min. And the gradient of Mobile phase was in the Table B.
Alternatively, an Agilent 6330 series LC/MS/MS spectrometer equipped with G1312A binary pumps, a G1367A autosampler and a G1314C UV detector were used in the analysis. An ESI source was used on the LC/MS/MS spectrometer. The analysis was done in positive ion mode as appropriate and the MRM transition for each analyte was optimized using standard solution. A Capcell MP-C18 100×4.6 mm I.D., […] column (Phenomenex, Torrance, Calif., USA) was used during the analysis. The mobile phase was 5 mM ammonia acetate, 0.1% MeOH in water (A): 5 mM ammonia acetate, 0.1% MeOH in acetonitrile (B) (70:30, v/v). The flow rate was 0.6 mL/min. Column was maintained at ambient temperature. 20 μL of the samples were injected.
The compounds disclosed herein are assessed in pharmacokinetic studies in mice, rats, dogs or monkeys. The compounds are administered as a water solution, 2% HPMC+1% TWEEN®80 in water solution, 5% DMSO+5% solutol in saline, 4% MC suspension or capsule. For the intravenous administration, the animals are generally given at 1 or 2 mg/kg dose. For the oral (p.o.) dosing, mice and rats are generally given 5 or 10 mg/kg dose, and dogs and monkeys are generally given 10 mg/kg dose. The blood samples (0.3 mL) are drawn at 0.25, 0.5, 1.0, 2.0, 3.0, 4.0, 6.0, 8.0, 12 and 24 h time points or 0.083, 0.25, 0.5, 1.0, 2.0, 4.0, 6.0, 8.0 and 24 h time points and centrifuged at 3,000 or 4000 rpm for 2 to 10 min. The plasma solutions are collected, and stored at −20° C. or −70° C. until analyzed by LC/MS/MS as described above.

The next series concerns the target T2, JAK1 (h) (Homo sapiens, UniProt P23458).
T2 construct: purchased Millipore UK Ltd (contract assay service)
Description: JAK1 (h) kinase assay. The class given is biochemical. The procedure:
as §7
JAK1 (h) is incubated with 20 mM Tris/HCl pH 7.5, 0.2 mM EDTA, 500 μM GEEPLYWSFPAKKK, 10 mM MgAcetate and [γ-^33P-ATP] (specific activity approx. 500 cpm/pmol, concentration as required). The reaction is initiated by the addition of the MgATP mix. After incubation for 40 minutes at room temperature, the reaction is stopped by the addition of 3% phosphoric acid solution. 10 μL of the reaction is then spotted onto a P30 filtermat and washed three times for 5 minutes in 75 mM phosphoric acid and once in methanol prior to drying and scintillation counting.
as §8

Series [3] is described as follows: Compound stability in human liver microsomes. The class given is in vitro ADME. The note with it: for half-life: pH 7.4, 37° C., NADPH, read-out: Human T1/2; for CLint scaled: pH 7.4, in vivo CLint extrapolated. The protocol:
as §1, §2, §3, §4, §5, §6

T2 sequence (P23458 whole entry): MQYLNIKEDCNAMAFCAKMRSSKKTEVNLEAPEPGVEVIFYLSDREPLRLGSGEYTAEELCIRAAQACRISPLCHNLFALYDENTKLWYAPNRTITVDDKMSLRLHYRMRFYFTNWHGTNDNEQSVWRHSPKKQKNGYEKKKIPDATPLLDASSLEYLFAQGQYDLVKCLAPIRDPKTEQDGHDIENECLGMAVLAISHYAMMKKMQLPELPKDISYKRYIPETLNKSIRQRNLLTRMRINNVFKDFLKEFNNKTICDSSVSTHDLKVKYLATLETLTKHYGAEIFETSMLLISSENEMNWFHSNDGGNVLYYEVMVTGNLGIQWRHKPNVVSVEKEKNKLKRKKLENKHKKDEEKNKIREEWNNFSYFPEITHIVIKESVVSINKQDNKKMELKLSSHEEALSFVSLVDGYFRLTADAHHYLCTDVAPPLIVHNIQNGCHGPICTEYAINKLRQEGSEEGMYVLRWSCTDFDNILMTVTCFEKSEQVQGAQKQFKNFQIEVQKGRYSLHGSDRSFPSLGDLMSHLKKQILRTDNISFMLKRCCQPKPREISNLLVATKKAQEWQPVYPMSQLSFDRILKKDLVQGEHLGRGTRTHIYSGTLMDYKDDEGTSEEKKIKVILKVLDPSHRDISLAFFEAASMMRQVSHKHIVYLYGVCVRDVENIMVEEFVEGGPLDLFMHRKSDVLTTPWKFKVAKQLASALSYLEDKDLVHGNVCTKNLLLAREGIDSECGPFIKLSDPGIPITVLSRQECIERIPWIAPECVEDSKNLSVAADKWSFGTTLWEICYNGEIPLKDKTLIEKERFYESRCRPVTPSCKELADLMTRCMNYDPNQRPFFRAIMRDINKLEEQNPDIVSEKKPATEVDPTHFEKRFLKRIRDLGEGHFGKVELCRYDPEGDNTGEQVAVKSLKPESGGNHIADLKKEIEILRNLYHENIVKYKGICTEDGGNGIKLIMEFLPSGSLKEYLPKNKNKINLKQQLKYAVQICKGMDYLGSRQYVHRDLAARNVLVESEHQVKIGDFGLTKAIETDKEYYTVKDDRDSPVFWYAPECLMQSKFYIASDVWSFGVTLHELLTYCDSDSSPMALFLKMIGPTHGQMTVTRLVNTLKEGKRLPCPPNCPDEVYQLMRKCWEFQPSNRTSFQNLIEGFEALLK
T1 sequence (O60674 whole entry): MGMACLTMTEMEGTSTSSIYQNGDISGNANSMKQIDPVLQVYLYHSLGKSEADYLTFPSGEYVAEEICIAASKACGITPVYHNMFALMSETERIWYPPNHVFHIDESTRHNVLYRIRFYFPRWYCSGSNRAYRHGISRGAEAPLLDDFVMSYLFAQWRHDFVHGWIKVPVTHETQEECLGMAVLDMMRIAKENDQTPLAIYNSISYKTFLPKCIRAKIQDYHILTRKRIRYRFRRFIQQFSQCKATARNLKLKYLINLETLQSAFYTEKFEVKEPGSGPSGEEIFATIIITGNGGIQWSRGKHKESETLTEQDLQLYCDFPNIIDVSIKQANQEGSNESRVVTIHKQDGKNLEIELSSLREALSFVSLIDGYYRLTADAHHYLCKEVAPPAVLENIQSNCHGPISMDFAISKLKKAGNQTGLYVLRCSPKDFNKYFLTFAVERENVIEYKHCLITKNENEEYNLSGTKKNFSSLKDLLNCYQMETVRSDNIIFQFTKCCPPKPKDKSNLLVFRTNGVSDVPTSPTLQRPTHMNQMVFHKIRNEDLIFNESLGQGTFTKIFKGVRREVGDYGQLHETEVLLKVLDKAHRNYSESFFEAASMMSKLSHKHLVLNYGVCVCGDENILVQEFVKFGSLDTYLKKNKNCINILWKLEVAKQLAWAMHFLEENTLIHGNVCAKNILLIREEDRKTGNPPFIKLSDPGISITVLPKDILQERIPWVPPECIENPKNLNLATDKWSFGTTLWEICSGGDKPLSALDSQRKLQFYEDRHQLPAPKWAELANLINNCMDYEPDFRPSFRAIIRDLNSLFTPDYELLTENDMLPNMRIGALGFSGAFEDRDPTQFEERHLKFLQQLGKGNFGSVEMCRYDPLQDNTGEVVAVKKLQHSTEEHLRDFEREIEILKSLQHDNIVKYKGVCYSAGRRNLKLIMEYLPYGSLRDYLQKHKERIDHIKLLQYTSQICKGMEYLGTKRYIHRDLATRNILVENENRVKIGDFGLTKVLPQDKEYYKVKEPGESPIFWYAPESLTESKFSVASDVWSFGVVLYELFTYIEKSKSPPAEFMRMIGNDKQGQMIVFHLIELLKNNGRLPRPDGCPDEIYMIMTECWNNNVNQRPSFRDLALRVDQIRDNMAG

In the case of `CCC1CN(c2ccc(C#N)nn2)CCC1Nc1nc(Nc2cc(C)n(C)n2)ncc1Cl` (centres unmarked) [Ex. 15, 6-(4-((5-chloro-2-((1,5-dimethyl-1H-pyrazol-3-yl)amino)pyrimidin-4-yl)amino)-3-ethylpiperidin-1-yl)pyridazine-3-carbonitrile], in series [1], the half-life worked out at 35 min and the intrinsic metabolic clearance (CLint scaled) is 71 mL/min/kg. At JAK2 (h), this compound came in with an IC50 of 0.6 nM. Moreover, in series [2], the “clearance (CL)” value is 8.67 mL/min/kg, the F stood at 92.2%, the AUC(0-t) was 1930 ng·h/mL and the half-life is 45.6 min. In series [2], the Vd was found to be 0.48 L/kg. Also, the 50% inhibitory concentration (IC50) on JAK1 (h) came to 0.6 nM. In series [3], the half-life is 23.3 min and the CLint scaled is 74.5 mL/min/kg.
`Cc1cc(Nc2ncc(Cl)c(N(C)C3CCN(c4ccc(C#N)cn4)CC3)n2)nn1C` [Ex. 9, 6-(4-((5-chloro-2-((1,5-dimethyl-1H-pyrazol-3-yl)amino)pyrimidin-4-yl) (methyl)amino)piperidin-1-yl)nicotinonitrile]: in series [1], the half-life was found to be 10.4 min and the CLint scaled was 240 mL/min/kg. Moreover, in series [2], the “clearance (CL)” value was found to be 48.8 mL/min/kg, the F is 45.8%, the exposure AUC(0-t) was determined as 350 ng·h/mL and the half-life was 54 min. In addition, the Vd in series [2] was 2.63 L/kg. For the same compound, the 50% inhibitory concentration (IC50) against JAK1 (h) was found to be 4 nM. Further, in series [3], the half-life stood at 17.9 min and the CLint scaled is 96.9 mL/min/kg.
In the case of `Cc1cc(Nc2ncc(Cl)c(NC3CCN(c4ccc(C#N)cn4)CC3)n2)n[nH]1` [Ex. 3], in series [1], the half-life is 74.5 min and the CLint scaled is 33.3 mL/min/kg. At JAK2 (h), this compound had an IC50 of 2 nM. In addition, in series [2], the “clearance (CL)” value came to 17.2 mL/min/kg, the F came out at 112.01%, the area under the curve AUC(0-t) was 1060 ng·h/mL and the half-life is 56.4 min. For the same compound, the Vd in series [2] was determined as 0.94 L/kg. Also, the half-inhibitory concentration (IC50) on JAK1 (h) is less than 0.3 nM. In addition, in series [3], the half-life came out at 163 min and the intrinsic metabolic clearance (CLint scaled) is 10.7 mL/min/kg.
Consider `Cc1cc(Nc2ncc(Cl)c(NC3CCN(c4ccc(C#N)cn4)CC3)n2)nn1C` [Ex. 2], for which the half-life in series [1] came to 17.7 min; in series [3], 36.3 min. The intrinsic clearance (CLint scaled) was 140 mL/min/kg in series [1] and 47.9 mL/min/kg in series [3]. The half-inhibitory concentration (IC50) at JAK2 (h) came to 3 nM; at JAK1 (h) it was 0.6 nM.
With `CN(c1nc(Nc2cnn(C)c2)ncc1Cl)C1CCN(c2ccc(C#N)cn2)C1` (centres unmarked) [Ex. 7, 6-(3-((5-chloro-2-((1-methyl-1H-pyrazol-4-yl)amino)pyrimidin-4-yl) (methyl)amino)pyrrolidin-1-yl)nicotinonitrile], in series [1], the half-life was found to be 9.2 min and the CLint scaled was 270 mL/min/kg. In series [2], the “clearance (CL)” value was 37.7 mL/min/kg, the F is 67.1%, the AUC(0-t) was determined as 445 ng·h/mL and the half-life is 20.4 min. Moreover, the Vd in series [2] worked out at 0.86 L/kg. The compound also had a 50% inhibitory concentration (IC50) against JAK1 (h) of 22 nM. Also, in series [3], the half-life is 14.5 min and the CLint scaled is 120 mL/min/kg.
Consider `Cc1cnc(Nc2cnn(C)c2)nc1N(C)C1CCN(c2ccc(C#N)cn2)CC1` [Ex. 6, 6-(4-(methyl(5-methyl-2-((1-methyl-1H-pyrazol-4-yl)amino)pyrimidin-4-yl)amino)piperidin-1-yl)nicotinonitrile], for which, in series [1], the half-life came out at 4.3 min and the CLint scaled was 577 mL/min/kg. For the same compound, in series [2], the “clearance (CL)” value was determined as 20.2 mL/min/kg, the F was determined as 22.2%, the area under the curve AUC(0-t) stood at 1360 ng·h/mL and the half-life was 35.9 min. Further, the Vd in series [2] worked out at 0.56 L/kg. The same compound registered an IC50 on JAK1 (h) of 2 nM. Further, in series [3], the half-life is 15.6 min and the intrinsic clearance (CLint scaled) was 111 mL/min/kg.
In the case of `Cn1cc2ccc(Nc3ncc(Cl)c(NC4CCN(c5ccc(C#N)nn5)CC4)n3)cc2n1` [Ex. 25], in series [1], the half-life worked out at 20.8 min and the CLint scaled was 120 mL/min/kg. In series [2], the “clearance (CL)” value was 14 mL/min/kg, the F was determined as 62.8%, the AUC(0-t) was 1220 ng·h/mL and the half-life was 28.2 min. The Vd in series [2] came out at 0.33 L/kg. Moreover, the half-inhibitory concentration (IC50) at JAK1 (h) was less than 0.3 nM. In series [3], the half-life was found to be 25.7 min and the CLint scaled was 67.6 mL/min/kg.
In the case of `Cn1nc(Nc2ncc(Cl)c(NC3CCN(c4ccc(C#N)cn4)CC3)n2)cc1C(C)(C)O` [Ex. 26, 6-(4-((5-chloro-2-((5-(2-hydroxypropan-2-yl)-1-methyl-1H-pyrazol-3-yl)amino)pyrimidin-4-yl)amino)piperidin-1-yl)nicotinonitrile], the IC50 on JAK2 (h) is 0.8 nM; on JAK1 (h), 1 nM.
Take `Cc1c2ccc(Nc3ncc(Cl)c(N(C)C4CCN(c5ccc(C#N)cn5)CC4)n3)cc2nn1C` [Ex. 8, 6-(4-((5-chloro-2-((2,3-dimethyl-2H-indazol-6-yl)amino)pyrimidin-4-yl) (methyl)amino)piperidin-1-yl)nicotinonitrile]: the IC50 on JAK1 (h) was determined as 3 nM. This counts as single-digit nanomolar.
